Assay type in all cases: functional
Assay [1] has as its system Mus musculus. Nature of the assay: Percent of tumor growth inhibition ratio (TGIR)of the compound administered intravenously at dose 100 ug/kg(on day 7, 11,15) in subcutaneously infected BDF1 mice on day 14.
For assay [2], the system named is Mus musculus. Nature of the assay: Percent of tumor growth inhibition ratio (TGIR)of the compound administered intravenously at dose 100 ug/kg(on day 7, 11,15) in subcutaneously infected BDF1 mice on day 18.
Assay [3] relates to Mus musculus. Nature of the assay: Percent of tumor growth inhibition ratio (TGIR)of the compound administered intravenously at dose 100 ug/kg(on day 7, 11,15) in subcutaneously infected BDF1 mice on day 11.
The subject of assay [4] is Mus musculus. Nature of the assay: Percent of tumor growth inhibition ratio (TGIR)of the compound administered intravenously at dose 100 ug/kg(on day 7, 11,15) in subcutaneously infected BDF1 mice on day 22.
Assay [5] is filed under the species Mus musculus. Nature of the assay: Evaluated for lymphocyte proliferation stimulatory effect in BALB/c mice and percent control of [3H]TdR incorporation at dose 100 ng/ml using allogenic mixed lymphocyte reaction (MLR).
The subject of assay [6] is Mus musculus. Nature of the assay: Evaluated for life span prolonging effects against female BDF1 mice infected intraperitoneally 1x10E6 P388 cells on day 0 at intravenous dose 0.1 mg/kg on day 1,5,9.
Assay [7] is filed under the species Mus musculus. Nature of the assay: Evaluated for lymphocyte proliferation stimulatory effect in BALB/c mice and percent control of [3H]TdR incorporation using allogenic mixed lymphocyte reaction (MLR) at a dose 1 ng/ml.
For assay [8], the species on record is Mus musculus. Nature of the assay: Evaluated for lymphocyte proliferation stimulatory effect in BALB/c mice and percent control of [3H]-TdR incorporation using allogenic mixed lymphocyte reaction (MLR) at a dose 10 ng/ml.
For assay [9], the system named is Mus musculus. Nature of the assay: Evaluated for life span prolonging effects against female BDF1 mice infected intraperitoneally 1x10E6 murine melanoma B16 cells on day 0 at dose of 0.1 mg/kg. To be noted: route intraperitoneal.
Assay [10] relates to Mus musculus. Nature of the assay: Evaluated for life span prolonging effects against female BDF1 mice infected intraperitoneally 1x10E6 murine melanoma B16 cells on day 0 at dose of 1 mg/kg. The conditions noted are these: route intraperitoneal.

Molecules are shown by their SMILES.

Data on nine molecules can be found in ChEMBL document CHEMBL1128864, “Antitumor activities of -, -monogalactosylceramides and four diastereomers of an -galactosylceramide” (1995).

Regarding `CCCCCCCCCCCCCC(=O)N[C@@H](CO[C@H]1O[C@@H](CO)[C@H](O)[C@H](O)[C@@H]1O)[C@H](O)CCCCCCCCCCCCC`, the TGIR was 66.6% in assay [1], 66.4% in assay [2], 76.5% in assay [3] and 67.9% in [4].

By T/C is commonly meant the result in the treated group divided by that in the control group, in per cent. Regarding `CCCCCCCCCCCCCCCCCCCCCC[C@@H](O)C(=O)N[C@@H](CO[C@H]1O[C@@H](CO)[C@H](O)[C@H](O)[C@@H]1O)[C@H](O)[C@H](O)CCCCCCCCCCCC(C)CC` (some centres undefined), the Control was found to be 255% in assay [5], 179% in assay [7] and 209% in [8]. Also, the Survival in [6] was 11.2 days; in assay [9] it was 28.2 days; in assay [10] it was 34.5 days. Moreover, the T/C was found to be 108% in assay [6], 152% in assay [9] and 187% in assay [10].

As to `CCCCCCCCCCCCCCCCCCCCCCCCCC(=O)N[C@@H](CO[C@H]1O[C@@H](CO)[C@H](O)[C@H](O)[C@@H]1O)[C@H](O)[C@H](O)CCCCCCCCCCCCCC`, the TGIR in [1] is listed as 17.2%; in assay [2], 20.3%; in assay [3], 16.1%; in assay [4] it was -3.8%.

For `CCCCCCCCCCCCCCCCCCCCCCC[C@@H](O)C(=O)N[C@@H](CO[C@H]1O[C@@H](CO)[C@H](O)[C@H](O)[C@@H]1O)[C@H](O)[C@H](O)CCCCCCCCCCCC(C)CC` (some centres undefined), the figures for the Control in assay [5], in [7] and in assay [8] were 319%, 233% and 281%, respectively. The Survival amounted to 11.2 days in assay [6], 28 days in assay [9] and 32 days in [10]. In addition, the T/C is 108% in assay [6], 151% in assay [9] and 173% in [10].

On to `CCCCCCCCCCCCCC(=O)N[C@@H](CO[C@H]1O[C@@H](CO)[C@H](O)[C@H](O)[C@@H]1O)[C@@H](O)CCCCCCCCCCCCC`, for which the TGIR was 4.9% in assay [1], 8.5% in assay [2] and 13.1% in [4].

Consider `CCCCCCCCCCCCCC(=O)N[C@H](CO[C@H]1O[C@@H](CO)[C@H](O)[C@H](O)[C@@H]1O)[C@H](O)CCCCCCCCCCCCC`, for which the figures for the TGIR in [1], in assay [2] and in assay [4] were 13%, 11% and 5.1%, respectively.

Regarding `CCCCCCCCCCCCCCCCCCCCCC[C@@H](O)C(=O)N[C@@H](CO[C@H]1O[C@@H](CO)[C@H](O)[C@H](O)[C@@H]1O)[C@H](O)[C@H](O)CCCCCCCCCCCC(C)C`, the Control is 236% in assay [5], 184% in [7] and 220% in assay [8]. Also, the Survival was 11.3 days in assay [6], 27.6 days in assay [9] and 27 days in [10]. Moreover, the T/C in assay [6] came to 109%; in [9], 149%; in assay [10], 146%.

Regarding `CCCCCCCCCCCCCCCCCCCCCC[C@@H](O)C(=O)N[C@@H](CO[C@H]1O[C@@H](CO)[C@H](O)[C@H](O)[C@@H]1O)[C@H](O)[C@H](O)CCCCCCCCCCCC`, the Control in assay [5] is reported as 350%; in assay [7], 253%; in assay [8], 258%. Besides, the Survival stood at 11 days in assay [6], 26.8 days in assay [9] and 31.5 days in assay [10]. For the same molecule, the T/C in assay [6] was determined as 106%; in [9] it was 145%; in assay [10], 170%.

For `CCCCCCC/C=C/C(C)=C/CC/C=C/[C@@H](O)[C@H](CO[C@H]1O[C@@H](CO)[C@H](O)[C@H](O)[C@@H]1O)NC(=O)[C@H](O)CCCCCCCCCCCCCCCCCCCCCC`, the Control is 169% in assay [5], 142% in assay [7] and 134% in assay [8]. Besides, the Survival worked out at 11.3 days in assay [6], 21.3 days in [9] and 23.7 days in assay [10]. Moreover, the T/C is 109% in assay [6], 115% in [9] and 127% in assay [10].
